Experimental data taken from patent US20050004167A1, “Branched chain amino acid-dependent aminotransferase inhibitors and their use in the treatment of neurodegenerative diseases” (WARNER-LAMBERT COMPANY LLC, priority 2001, published 2005).
“And” between values parts separate entries of the source, which are not always exact repeats. Identical values can stand only once.

Tests used:
[1] = molecular target: T1, human Branched Chain Amino Acid Aminotransferase cytosolic form (hBCATc) (Homo sapiens, UniProt P54687); experiment: In vitro coupled enzyme assay (glutamate dehydrogenase, NADH formation), human BCATc; type: biochemical; details: recombinant human BCATc, 37° C., 25 mM phosphate buffer pH 7.8; several values in a cell = repeat determinations; read-out: RhBCATc
T1 construct: made in house; host or cells: E. coli BL21(DE3)
T1 sequence (P54687 1-386): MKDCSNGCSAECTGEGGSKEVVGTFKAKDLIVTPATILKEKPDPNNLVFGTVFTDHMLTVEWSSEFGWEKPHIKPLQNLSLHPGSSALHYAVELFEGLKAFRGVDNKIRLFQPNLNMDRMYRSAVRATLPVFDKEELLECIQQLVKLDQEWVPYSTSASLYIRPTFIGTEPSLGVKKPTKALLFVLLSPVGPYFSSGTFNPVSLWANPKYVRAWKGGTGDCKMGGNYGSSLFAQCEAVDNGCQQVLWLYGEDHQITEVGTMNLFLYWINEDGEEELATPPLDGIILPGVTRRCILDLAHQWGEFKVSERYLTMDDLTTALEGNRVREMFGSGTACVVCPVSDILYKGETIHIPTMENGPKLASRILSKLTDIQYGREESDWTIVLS
Method: In vitro enzyme assay—human Branched Chain Amino Acid Aminotransferase cytosolic form (hBCATc) and mitochondrial form (hBCATm) as well as rat BCAT cytosolic form were assayed at 37° C. in 25 mM phosphate buffer pH 7.8. In addition, 2 mM DTT and 12.5 mM […] were added to the assay mixture. A coupling enzyme assay was used to monitor the production of glutamate. The formation of NADH from NAD+ at […] was followed on a 96-well plate Molecular Devices plate reader.
The following components were used in this coupled assay: 4 mM ADP, 1 mM NAD+, 750 μM L-Leucine, 500 μM α-ketoglutarate, 10 μM pyridoxal phosphate, 1 unit glutamate dehydrogenase, and 1.25 μg of the appropriate BCAT enzyme. Inhibitions by compounds were assayed by adding various concentrations to this coupled assay procedure as a DMSO stock up to a 5% v/v DMSO/buffer ratio.
Enzyme Preparation—humanBCATc and ratBCATc were expressed in BL21(DE3) cells. A growing culture of cells was induced with 1 mM IPTG at room temperature overnight. These cells were harvested by centrifugation at 10,000 g for 20 minutes. The supernatant was discarded, and the cells were stored at −80° C. until needed. The protein was purified by the following method. The cell paste was resuspended in extraction buffer (0.1 M phosphate, pH 8.0, with 0.01 M Tris-HCL and 5 mM TCEP and then lysed on a French Press at 1000 psi. The lysate was centrifuged at 10,000 g for 15 minutes, and the pellet was discarded. The supernatant was loaded onto a Hitrap Chelating column previously charged with 0.1 M NiSO4 and washed with 3 to 4 column volumes of extraction buffer. The column was then washed with 0.01 Tris, pH 7.5, 10% glycerol, 150 mM NaCl, 5 mM TCEP for two column volumes. The column was then further washed with two column volumes of 0.1 M phosphate, pH 6.0, 0.01 M Tris, 10% glycerol and 750 mM NaCl. Finally, the column was washed with two column volumes of the same buffer plus 50 mM imidazole. The BCAT enzyme was then eluted with the same buffer but with 350 mM imidazole. The eluant was then dialyzed overnight against 10 mM phosphate buffer pH 8.0, 10% glycerol, and 5 mM TCEP. The dialyzed protein was then loaded onto a Q-sepharose column and eluted using a salt gradient. Active fractions were collected and further purified on a Superose-12 column to yield pure BCAT protein.

melting point [°C] | IC50 [1] | SMILES
251.6 to 252.7 |  | CN(C)c1ccc2[nH]c(C(=O)NNS(=O)(=O)c3ccccc3)cc2c1.Cl
103.2 to 103.9 |  | CN(C)c1ccccc1S(=O)(=O)NNC(=O)c1ccc2oc3ccccc3c2c1.Cl
218.3 to 218.9 |  | CN(C)c1ccc2oc(C(=O)NNS(=O)(=O)c3ccccc3)cc2c1.Cl
187.6 to 188.8 |  | CN(C)c1ccc(S(=O)(=O)NNC(=O)c2ccc3oc4ccccc4c3c2)cc1.Cl
156 to 158 |  | O=C(NNS(=O)(=O)c1ccccc1)c1ccc2c(c1)OCO2 (hydrate or solvate) [Example 10, Benzo[1,3]dioxole-5-carboxylic acid 2-(phenylsulfonyl)hydrazide]
211 to 214 |  | O=C(NNS(=O)(=O)c1ccccc1)c1ccc2ncccc2c1 (hydrate or solvate) [Example 13, Quinoline-6-carboxylic acid 2-(phenylsulfonyl)hydrazide]
173 to 175 |  | O=C(NNS(=O)(=O)c1ccccc1)c1cccc2cccnc12 (hydrate or solvate) [Example 21, Quinoline-8-carboxylic acid 2-(phenylsulfonyl)hydrazide]
207.7 to 208.1 |  | O=C(NNS(=O)(=O)c1ccccc1)c1cc2cc([N+](=O)[O-])ccc2o1 (hydrate or solvate) [Example 34, 2-Benzofurancarboxylic acid, 5-nitro-, 2-(phenylsulfonyl)hydrazide]
156.8 to 157.6 |  | COc1cccc2cc(C(=O)NNS(=O)(=O)c3ccccc3C(F)(F)F)oc12 (hydrate or solvate) [Example 54, 2-Benzofurancarboxylic acid, 7-methoxy-, 2-[[2-(trifluoromethyl)phenyl]-sulfonyl]hydrazide]
170.8 to 171.8 |  | COc1cccc2cc(C(=O)NNS(=O)(=O)c3cccc(C)c3)oc12 (hydrate or solvate) [Example 55, 2-Benzofurancarboxylic acid, 7-methoxy-, 2-[(3-methylphenyl)sulfonyl]hydrazide]
224.9 to 225.8 |  | COc1ccc2cc(C(=O)NNS(=O)(=O)c3ccccc3)oc2c1 (hydrate or solvate) [Example 56, 2-Benzofurancarboxylic acid, 6-methoxy-, 2-(phenylsulfonyl)hydrazide]
127 to 129 |  | COc1ccc2oc(C(=O)NNS(=O)(=O)c3ccccc3)c(OC(C)C)c2c1 (hydrate or solvate) [Example 57, 2-Benzofurancarboxylic acid, 5-methoxy-3-(1-methylethoxy), 2-(phenylsulfonyl)-hydrazide]
230.6 to 231 |  | COc1cc(OC)c2cc(C(=O)NNS(=O)(=O)c3ccccc3)oc2c1 (hydrate or solvate) [Example 60, 2-Benzofurancarboxylic acid, 4,6-dimethoxy-, 2-(phenylsulfonyl)hydrazide]
177.9 to 179.6 |  | COc1c(C(=O)NNS(=O)(=O)c2ccccc2)oc2c(OC)cccc12 (hydrate or solvate) [Example 61, 2-Benzofurancarboxylic acid, 3,7-dimethoxy-, 2-(phenylsulfonyl)hydrazide]
190.6 to 192.3 |  | COc1c(C(=O)NNS(=O)(=O)c2ccccc2C(F)(F)F)oc2c(OC)cccc12 (hydrate or solvate) [Example 62, 2-Benzofurancarboxylic acid, 3,7-dimethoxy-, 2-[(2-trifluoromethylphenyl)-sulfonyl]hydrazide]
190.9 to 191.1 |  | COc1c(C(=O)NNS(=O)(=O)c2ccc(F)cc2)oc2c(OC)cccc12 (hydrate or solvate) [Example 63, 2-Benzofurancarboxylic acid, 3,7-dimethoxy-, 2-[(4-fluorophenyl)sulfonyl]-hydrazide]

melting point [°C] | IC50 [1] | SMILES
179.4 to 180.9 |  | COc1c(C(=O)NNS(=O)(=O)c2cccc(C)c2)oc2c(OC)cccc12 (hydrate or solvate) [Example 64, 2-Benzofurancarboxylic acid, 3,7-dimethoxy-, 2-[(3-methylphenyl)sulfonyl]-hydrazide]
 | 90.5 µM | O=C(NNS(=O)(=O)c1ccccc1)c1cccc2oc3ccccc3c12 [Example 12, 1-Dibenzofurancarboxylic acid 2-(phenylsulfonyl)hydrazide]
 | > 100 µM | O=C(NNS(=O)(=O)c1ccccc1)c1cccc2cccnc12 [Example 21, Quinoline-8-carboxylic acid 2-(phenylsulfonyl)hydrazide]
 | 3.76 µM | COc1cccc2cc(C(=O)NNS(=O)(=O)c3ccccc3C(F)(F)F)oc12 [Example 54, 2-Benzofurancarboxylic acid, 7-methoxy-, 2-[[2-(trifluoromethyl)phenyl]-sulfonyl]hydrazide]
 | 3.53 µM and 3.3 µM | COc1cccc2cc(C(=O)NNS(=O)(=O)c3cccc(C)c3)oc12 [Example 55, 2-Benzofurancarboxylic acid, 7-methoxy-, 2-[(3-methylphenyl)sulfonyl]hydrazide]
 | 3.7 µM | COc1c(C(=O)NNS(=O)(=O)c2ccccc2)oc2ccc(Cl)cc12 [Example 78, 2-Benzofurancarboxylic acid, 5-chloro-3-methoxy, 2-(phenylsulfonyl)hydrazide]
 | 16.8 µM | Cc1ccc(S(=O)(=O)NNC(=O)c2cnc3ccccc3c2)cc1 [Example 127, 3-Quinolinecarboxylic acid, 2-[(4-methylphenyl)sulfonyl]hydrazide]
 | 12 µM | Cc1cccc(S(=O)(=O)NNC(=O)c2ccc3ncccc3c2)c1 [Example 128, 6-Quinolinecarboxylic acid, 2-[(3-methylphenyl)sulfonyl]hydrazide]
 | 13 µM | Cc1cccc(S(=O)(=O)NNC(=O)c2cnc3ccccc3c2)c1 [Example 129, 3-Quinolinecarboxylic acid, 2-[(3-methylphenyl)sulfonyl]hydrazide]
 | 22 µM | O=C(NNS(=O)(=O)c1cccc(Cl)c1)c1ccc2ncccc2c1 [Example 130, 6-Quinolinecarboxylic acid, 2-[(3-chlorophenyl)sulfonyl]hydrazide]
 | 61 µM | O=C(NNS(=O)(=O)c1cccc(Cl)c1)c1cnc2ccccc2c1 [Example 131, 3-Quinolinecarboxylic acid, 2-[(3-chlorophenyl)sulfonyl]hydrazide]
 | 40 µM | O=C(NNS(=O)(=O)c1cccc(F)c1)c1ccc2ncccc2c1 [Example 132, 6-Quinolinecarboxylic acid, 2-[(3-fluorophenyl)sulfonyl]hydrazide]
 | > 100 µM | O=C(NNS(=O)(=O)c1cccc(F)c1)c1cnc2ccccc2c1 [Example 133, 3-Quinolinecarboxylic acid, 2-[(3-fluorophenyl)sulfonyl]hydrazide]
 | > 100 µM | O=C(NNS(=O)(=O)c1cc(Cl)cc(Cl)c1)c1ccc2ncccc2c1 [Example 138, 6-Quinolinecarboxylic acid, 2-[(3,5-dichlorophenyl)sulfonyl]hydrazide]
 | 41 µM | O=C(NNS(=O)(=O)c1cc(Cl)cc(Cl)c1)c1cnc2ccccc2c1 [Example 139, 3-Quinolinecarboxylic acid, 2-[(3,5-dichlorophenyl)sulfonyl]hydrazide]
 | > 100 µM | O=C(NNS(=O)(=O)c1ccccc1)c1nccc2ccccc12 [Example 152, Isoquinoline-1-carboxylic acid 2-(phenylsulfonyl)hydrazide]
